Reference: PubChem BioAssay AID179 (DTP/NCI, 2004)
Activity calls are given as the source filed them.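 How the source made its calls: active means compounds giving half or more protection of infected cells from virus-caused growth loss, again on retest; inactive means the rest.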 Where a SMILES comes first, the peptide text is derived from it. [ ]: non-standard residue; d: D form. The star is where a group is joined. Phe(4-NO2) = N[CH](Cc1ccc([N+](=O)[O-])cc1)C(=O)O; Boc = CC(C)(C)OC(=O)*; OtBu = CC(C)(C)O*

Test system: CEM cells HIV-1 protection, formazan growth assay
Assay: NCI AIDS Antiviral Assay
Conditions: for IC50: measured here: growth of uninfected CEM cells
In short: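 Screen of anti-HIV-1 activity in human CEM cells using a formazan-based growth measurement at five drug concentrations. Hits with 50% or greater protection were repeated, and confirmation required reproducible complete protection.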

Structure (SMILES)	EC50 [µM]	IC50 [µM]	outcome
N#CC(Nc1ccccc1)c1ccc(C(C#N)Nc2ccccc2)cc1 (centres undefined)	> 200	9.55	–
COc1cc(/C=C/C(=O)C(C)(C)C)cc(OC)c1OC	> 178	11.5	–
O=c1[nH]nc(Nc2ccc(Cl)cc2)c2nnn(-c3ccc([N+](=O)[O-])cc3)c12	> 200	67.6	–
CCOc1ccc(/C=C2/C(=O)N=C(N)N=C2N)cc1OCC	–	–	inactive
COc1c(C)c2c(c(=O)c3c(C)cccc3n2C)c2c1c(=O)c1c(C)cccc1n2C	> 200	155	–
CCOC(=O)CC1=Nc2ccccc2SC1	–	–	inactive
CN1C/C(=C\c2cccs2)C2=NC(=S)NC(c3cccs3)C2C1 (centres undefined)	> 200	36.3	–
O=C1CCCC/C1=C\c1ccc(Br)cc1	> 200	10.7	–
COc1cc(/C=C/c2ccc(OC)c(OC)c2)cc(OC2OC(CO)C(O)C(O)C2O)c1 (centres undefined)	–	–	inactive
CCOP(=O)(OCC)c1ccc(=O)[nH]c1-c1cccs1	> 200	> 200	–
COc1ccc(C(=O)C(CN2CCOCC2)CN2CCOCC2)cc1	> 200	1.32	–
O=C1NC(N2CCCCC2)=N/C1=C\c1cccs1	> 200	151	–
CC(C)CCC[C@@H](C)C1CCC2[C@@H]3CCC4CC(CCC=C(c5cc(Cl)c(OC(=O)c6ccccc6)c(C(=O)O)c5)c5cc(Cl)c(OC(=O)c6ccccc6)c(C(=O)O)c5)CC[C@]4(C)C3CC[C@@]21C (some centres undefined)	> 200	141	–
CC(=O)[O-].Cc1ccnc(NS(=O)(=O)c2ccc(N=Cc3ccccc3[O-])cc2)n1.Cc1ccnc(NS(=O)(=O)c2ccc(N=Cc3ccccc3[O-])cc2)n1.[Cu+2]	> 200	5.62	–
CCOC(=O)/C(C#N)=C/c1ccnc2ccccc12	> 200	3.8	–
CCCCCCOP(=O)(OCCCCCC)OC(C(=O)OC)C(F)(F)F (centres undefined)	> 200	44.7	–
COC(=O)C1C2C=CC(C2)N1[C@@H](C)c1ccccc1 (some centres undefined)	> 28.2	> 28.2	–
CCOP(=O)(OCC)/C(C#N)=C/c1c(C)[nH]c2ccccc12	> 200	158	–
Cc1ccc(/C=N/n2c(-c3ccc(C)cc3)n[nH]c2=O)cc1	> 200	> 200	–
CCSc1ccc(/C=C(\C#N)c2ccc(OCCN(CC)CC)cc2)cc1	> 100	1.2	–
N.N.N.N.O=N[O-].O=N[O-].O=[N+]([O-])[O-].[Co+3]	> 200	> 200	–

Structure (SMILES)	EC50 [µM]	IC50 [µM]	outcome
CC(C)(C)n1c(=O)[nH]n(C2NN=Cc3cccc4cccc2c34)c1=O (centres undefined)	> 200	24	–
COC(CN1CCOCCOCCOCC1)CN1CCOCCOCCOCC1	> 2510	> 2510	–
c1ccc2c(c1)CCc1c-2n(CCN2CCCCC2)c2ccccc12	> 200	10.7	–
COc1ccc(C(=O)CC(c2ccc3c(c2)OCO3)c2c(O)c3ccccc3oc2=O)cc1OC (centres undefined)	> 200	89.1	–
COC(=O)C1C2C(=O)NC(=O)C2C(c2ccc(-c3ccccc3)cc2)N1C1CCCCC1 (centres undefined)	> 135	19.1	–
CS/C(=C\c1ccc(C(=O)c2ccc(C)cc2)n1C)S(C)=O (centres undefined)	> 200	12.3	–
O=C1C2=C(c3ccccc31)C(c1ccc(Cl)cc1)NC(=S)N2 (centres undefined)	> 57.5	29.5	–
CCOc1ccccc1N=Nc1ccc2oc(=O)c(C(C)=O)cc2c1	> 8.13	> 8.13	–
O=C1OC[C@H](Cc2ccccc2)N1C(=O)[C@H]1NC(=S)OC1Cc1ccc(OCc2ccccc2)cc1 (some centres undefined)	–	–	inactive
Cc1cc2c(cc1Cl)Sc1nccn1S2(=O)=O	40.7	79.4	–
Cc1nc2c(ccc3[nH]c4ccccc4c32)s1	–	–	inactive
Clc1ccc(NC2=NCCCS2)c2ccccc12	> 200	42.7	–
O=c1cc(Nc2cccc(O)c2)[nH]c(=O)[nH]1	–	–	inactive
O=C(OCc1ccccc1)N(CCCCN(CCCNC(=O)C(F)(F)F)C(=O)OCc1ccccc1)CCCNC(=O)C(F)(F)F	–	–	inactive
Nc1ccc2c(c1)Oc1ccc(N)cc1O2	> 200	> 200	–
CN(C)P(CCP(C)C)N(C)C	> 174	> 174	–
COC(=O)C1=C(O)C(C(=O)OC)[C@@]2(O)[C@@H](C(=O)OC)CC[C@@H]1[C@@H]2C(=O)OC (some centres undefined)	> 200	38.9	–
COc1ccc(C(C2=C(O)COC2=O)c2cc3c(cc2O)OCO3)cc1OC (centres undefined)	> 200	132	–
CCC1(O)C(=O)c2ccccc2N(c2ccccc2)C1=O (centres undefined)	> 200	> 200	–
CC(=O)Nc1ccc(C(=O)NN2C(=O)C(Cl)C2c2ccc(Cl)cc2)cc1 (centres undefined)	> 200	> 200	–
Cc1cc(C)c(C)c(-n2[nH]c(=O)n(C)c2=O)c1C	> 200	> 200	–

Structure (SMILES)	EC50 [µM]	IC50 [µM]	outcome
Cc1ccc(NC(=O)Nc2sc(=S)c3c(c2C#N)CCCC3)c(C)c1	> 58.9	> 58.9	–
COC(OC)c1cccc2c1C(=O)CCC1(CC2)OCCCCO1	> 200	> 200	–
CCOC(=O)c1[nH]c(COC(C)=O)c(CCCOC(C)=O)c1CCCOC(C)=O	–	–	inactive
CC(C)c1ccc(C2NC(=S)NC3=C2c2ccccc2C3=O)cc1 (centres undefined)	> 107	14.8	–
CN(C)CCNc1ccc2c(=O)n(CCN(C)C)c(=O)n3c4ccccc4c(=O)c1c23	> 0.1	0.00933	–
Cc1c([O-])c([O-])c(C)c2c1OCO2.[C-]#[O+].[C-]#[O+].[C-]#[O+].[C-]#[O+].[Re]	> 200	31.6	–
CC1C2(C)OCC(C#N)(C(=N)O2)C1(C#N)C#N (centres undefined)	> 200	20.9	–
CCCCOC1NC(=O)NC(=O)C1(F)C(=O)OCC (centres undefined)	> 200	6.61	–
COc1ccc(/C=C(/C#N)C(N)=O)c(OC)c1	> 200	60.3	–
CC(C)C1=CC23CCC4C(C)(C(=O)O)CCCC4(C)C2CC1C1C(=O)N(c2ccccc2)C(=O)C13 (centres undefined)	> 52.5	> 52.5	–
COC(=O)c1c(CC(Cc2ccc3c(c2)CCCC3)C(=O)O)ccc2c1CCCC2 (centres undefined)	> 200	58.9	–
CC(C)N(C(=O)C12C3C4C5C3C1(C(=O)N(C(C)C)C(C)C)C5(C#N)C42)C(C)C (centres undefined)	> 93.3	> 93.3	–
Cc1cc(NS(=O)(=O)c2ccc(Nc3c4ccccc4nc4ccc(C(=O)Nc5ccc(S(N)(=O)=O)cc5)cc34)cc2)no1	> 200	110	–
COC(=O)C(COC(C)=O)NC(=O)/C=C/c1ccc(O)c(OC(C)=O)c1 (centres undefined)	> 200	10	–
COC(=O)C(Cc1ccc([N+](=O)[O-])cc1)NC(=O)C(CC(=O)OC(C)(C)C)NC(=O)OC(C)(C)C (centres undefined) (Boc-Asp(OtBu)-[Phe(4-NO2)]-OMe; configuration not given here)	> 200	93.3	–
COC(=O)CC1C(COC(C)=O)OC(n2cc(C)c(=O)[nH]c2=O)C1OC(C)=O (centres undefined)	–	–	inactive
N/C(CSCCSC/C(N)=N/O)=N\O	> 200	> 200	–
OCC(O)C(O)C(O)C1SC(c2ccccc2)=NN1c1ccccc1 (centres undefined)	–	–	inactive
O=C(CCN1CCC(CCO)CC1)Nc1ccc2c(c1)C(=O)c1ccc(NC(=O)CCN3CCC(CCO)CC3)cc1C2=O	> 200	43.7	–
C=C1CCC[C@@H]2[C@@](C)(CC3=CC(=O)C=CC3=O)C(C)CC[C@]12C (some centres undefined)	> 60.3	0.427	–
